pIC50: −log10 of the molar value. Like-named read-outs stand apart in the source and are kept apart here.
Assays:
[1] = biological target: N-type calcium channel (α1B (Cav2.2), β3 and α2δ subunits) (Homo sapiens, UniProt Q00975); test: Functional Assay: Antagonism of N-Type Calcium Channel (FDSS calcium mobilization, KCl depolarization); type: cell-based; settings: for pIC50: HEK cell line, 50 mM KCl depolarization, six-point concentration-response, read-out: FDSS IC50
How it was run: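 HEK cells stably co-expressing α1B (Cav2.2), β3 and α2δ were loaded with calcium dye, then given compound with fluorescence recorded for 5 min before 50 mM KCl depolarisation and 3 min more reading. IC50 came from six-point curves of maximal fluorescence, normalised to KCl maximum and buffer minimum.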

[2] = tested on: Complete Freund's Adjuvant (CFA)-Induced Hyperalgesia; test: Complete Freund's Adjuvant (CFA)-Induced Hyperalgesia, radiant heat; type: in vivo, Sprague-Dawley rats; settings: rat CFA radiant heat model of inflammatory pain; FIG. 1
N-type calcium channel = N-type calcium channel (Homo sapiens, UniProt Q00975); test: Automated Electrophysiology Assay (QPatch-HT whole-cell patch clamp; low- and high-frequency stimulation); type: cell-based
[3] = high-frequency stimulation (15th pulse), read-out: QPatch at High Frequency % Inhibition
[4] = low frequency, read-out: QPatch at Low Frequency % Inhibition

Sequence of N-type calcium channel (Q00975 whole entry): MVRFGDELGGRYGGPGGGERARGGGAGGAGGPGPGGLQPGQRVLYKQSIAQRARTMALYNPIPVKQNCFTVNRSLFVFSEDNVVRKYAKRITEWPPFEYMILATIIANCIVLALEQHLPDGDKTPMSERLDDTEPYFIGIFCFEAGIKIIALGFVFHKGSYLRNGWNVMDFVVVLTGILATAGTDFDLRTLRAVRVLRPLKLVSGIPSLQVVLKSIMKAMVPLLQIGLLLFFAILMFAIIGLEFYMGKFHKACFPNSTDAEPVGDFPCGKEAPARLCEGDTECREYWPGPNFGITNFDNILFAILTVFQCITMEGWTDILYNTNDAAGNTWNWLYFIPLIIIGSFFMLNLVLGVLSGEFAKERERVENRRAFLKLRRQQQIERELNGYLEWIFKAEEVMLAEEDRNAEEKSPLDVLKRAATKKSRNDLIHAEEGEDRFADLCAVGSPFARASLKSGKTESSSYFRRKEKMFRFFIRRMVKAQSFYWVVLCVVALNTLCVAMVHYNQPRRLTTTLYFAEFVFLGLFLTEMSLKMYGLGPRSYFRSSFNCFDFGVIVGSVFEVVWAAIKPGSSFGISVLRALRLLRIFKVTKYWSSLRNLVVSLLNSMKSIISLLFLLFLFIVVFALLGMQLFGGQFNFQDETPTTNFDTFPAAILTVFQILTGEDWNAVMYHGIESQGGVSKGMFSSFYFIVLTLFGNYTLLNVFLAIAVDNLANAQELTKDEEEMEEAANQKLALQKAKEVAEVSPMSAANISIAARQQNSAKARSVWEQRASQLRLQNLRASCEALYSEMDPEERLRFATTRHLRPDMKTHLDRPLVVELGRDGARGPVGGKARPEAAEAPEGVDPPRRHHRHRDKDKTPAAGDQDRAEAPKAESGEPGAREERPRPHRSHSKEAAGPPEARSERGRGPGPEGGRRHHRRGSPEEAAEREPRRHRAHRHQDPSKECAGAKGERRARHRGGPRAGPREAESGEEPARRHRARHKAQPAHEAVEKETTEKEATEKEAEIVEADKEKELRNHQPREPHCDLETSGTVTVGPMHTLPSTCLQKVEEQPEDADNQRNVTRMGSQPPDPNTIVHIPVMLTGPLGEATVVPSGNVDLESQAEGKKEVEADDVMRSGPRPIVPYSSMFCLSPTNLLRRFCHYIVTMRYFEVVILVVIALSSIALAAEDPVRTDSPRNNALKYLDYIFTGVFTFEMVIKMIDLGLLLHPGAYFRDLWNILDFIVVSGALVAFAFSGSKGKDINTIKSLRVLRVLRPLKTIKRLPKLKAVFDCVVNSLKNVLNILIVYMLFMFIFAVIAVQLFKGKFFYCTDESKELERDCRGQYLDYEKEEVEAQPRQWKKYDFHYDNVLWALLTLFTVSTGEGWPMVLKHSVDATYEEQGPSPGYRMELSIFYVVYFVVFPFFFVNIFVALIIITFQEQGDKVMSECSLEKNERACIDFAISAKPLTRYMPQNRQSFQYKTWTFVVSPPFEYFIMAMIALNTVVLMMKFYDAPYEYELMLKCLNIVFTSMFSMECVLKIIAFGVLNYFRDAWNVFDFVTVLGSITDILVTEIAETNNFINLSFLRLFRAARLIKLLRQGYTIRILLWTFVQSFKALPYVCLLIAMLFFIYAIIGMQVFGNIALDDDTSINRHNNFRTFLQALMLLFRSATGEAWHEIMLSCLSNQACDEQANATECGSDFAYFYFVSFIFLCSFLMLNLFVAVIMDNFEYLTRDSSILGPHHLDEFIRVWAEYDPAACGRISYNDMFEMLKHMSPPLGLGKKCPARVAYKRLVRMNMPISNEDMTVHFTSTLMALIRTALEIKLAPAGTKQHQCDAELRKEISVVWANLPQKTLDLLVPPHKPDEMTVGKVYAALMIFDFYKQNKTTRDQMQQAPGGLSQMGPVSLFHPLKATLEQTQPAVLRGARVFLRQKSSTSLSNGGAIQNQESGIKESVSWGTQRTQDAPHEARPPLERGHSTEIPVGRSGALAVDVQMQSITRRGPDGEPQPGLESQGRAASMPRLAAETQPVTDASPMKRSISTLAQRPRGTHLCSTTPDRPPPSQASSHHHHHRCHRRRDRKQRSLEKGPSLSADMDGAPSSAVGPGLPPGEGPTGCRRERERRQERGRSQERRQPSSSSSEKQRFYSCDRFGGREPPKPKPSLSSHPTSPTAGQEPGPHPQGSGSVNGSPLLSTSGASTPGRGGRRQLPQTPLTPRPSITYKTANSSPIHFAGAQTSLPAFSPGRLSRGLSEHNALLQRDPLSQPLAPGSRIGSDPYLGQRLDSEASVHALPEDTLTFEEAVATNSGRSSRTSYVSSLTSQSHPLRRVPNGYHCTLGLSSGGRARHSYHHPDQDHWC
Sequence of N-type calcium channel (P54284 whole entry partner): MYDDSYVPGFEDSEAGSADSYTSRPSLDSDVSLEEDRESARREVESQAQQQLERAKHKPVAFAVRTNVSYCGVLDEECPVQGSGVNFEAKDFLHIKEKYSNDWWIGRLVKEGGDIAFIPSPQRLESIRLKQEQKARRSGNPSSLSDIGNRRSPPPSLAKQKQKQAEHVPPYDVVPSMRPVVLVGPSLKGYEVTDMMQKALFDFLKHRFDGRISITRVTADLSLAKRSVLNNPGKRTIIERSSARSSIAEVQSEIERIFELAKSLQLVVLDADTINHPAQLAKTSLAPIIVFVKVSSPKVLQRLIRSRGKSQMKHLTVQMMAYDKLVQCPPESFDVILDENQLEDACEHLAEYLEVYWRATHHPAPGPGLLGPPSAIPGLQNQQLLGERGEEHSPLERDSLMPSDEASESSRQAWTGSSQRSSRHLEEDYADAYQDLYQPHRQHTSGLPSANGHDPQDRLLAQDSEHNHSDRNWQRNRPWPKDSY
Sequence of N-type calcium channel (P54289 25-946 partner limits assumed): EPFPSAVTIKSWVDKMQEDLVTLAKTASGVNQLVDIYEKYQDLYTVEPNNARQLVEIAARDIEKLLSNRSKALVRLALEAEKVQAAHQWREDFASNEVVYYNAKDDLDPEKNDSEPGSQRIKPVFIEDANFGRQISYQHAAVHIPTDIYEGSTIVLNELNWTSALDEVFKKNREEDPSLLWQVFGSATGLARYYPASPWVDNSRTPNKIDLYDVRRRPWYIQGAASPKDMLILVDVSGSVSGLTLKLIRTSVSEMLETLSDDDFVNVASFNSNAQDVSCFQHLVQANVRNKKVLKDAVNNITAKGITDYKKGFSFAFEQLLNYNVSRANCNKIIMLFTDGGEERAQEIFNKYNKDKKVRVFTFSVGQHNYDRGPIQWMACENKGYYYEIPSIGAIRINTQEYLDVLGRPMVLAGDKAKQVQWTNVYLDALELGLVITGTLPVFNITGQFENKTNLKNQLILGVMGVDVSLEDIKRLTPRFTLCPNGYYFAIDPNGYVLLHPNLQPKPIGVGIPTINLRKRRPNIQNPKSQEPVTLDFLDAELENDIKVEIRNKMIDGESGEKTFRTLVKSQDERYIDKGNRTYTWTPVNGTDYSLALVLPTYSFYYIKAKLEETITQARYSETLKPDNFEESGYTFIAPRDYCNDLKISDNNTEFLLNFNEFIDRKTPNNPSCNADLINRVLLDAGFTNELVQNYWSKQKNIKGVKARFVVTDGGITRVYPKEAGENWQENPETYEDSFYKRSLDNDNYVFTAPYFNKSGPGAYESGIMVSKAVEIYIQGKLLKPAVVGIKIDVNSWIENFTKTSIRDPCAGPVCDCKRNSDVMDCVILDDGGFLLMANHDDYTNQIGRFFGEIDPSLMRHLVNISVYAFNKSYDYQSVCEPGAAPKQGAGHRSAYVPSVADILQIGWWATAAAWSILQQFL
Sequence of N-type calcium channel (P54289 947-1103 partner limits assumed): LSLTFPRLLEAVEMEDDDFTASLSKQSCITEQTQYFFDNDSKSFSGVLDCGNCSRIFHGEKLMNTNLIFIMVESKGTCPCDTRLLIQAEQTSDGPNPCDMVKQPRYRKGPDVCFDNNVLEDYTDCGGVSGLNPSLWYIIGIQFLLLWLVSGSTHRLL
Sequence of N-type calcium channel (α1B (Cav2.2), β3 and α2δ subunits) (Q00975 whole entry): as the sequence (Q00975 whole entry) above
Sequence of N-type calcium channel (α1B (Cav2.2), β3 and α2δ subunits) (P54284 whole entry partner): as the sequence (P54284 whole entry partner) above
Sequence of N-type calcium channel (α1B (Cav2.2), β3 and α2δ subunits) (P54289 25-946 partner limits assumed): as the sequence (P54289 25-946 partner limits assumed) above
Sequence of N-type calcium channel (α1B (Cav2.2), β3 and α2δ subunits) (P54289 947-1103 partner limits assumed): as the sequence (P54289 947-1103 partner limits assumed) above

inhibition at 0.33 µM [1] [%]	pIC50 [1]	inhibition at 0.1 µM (N-type calcium channel; [3]) [%]	inhibition at 0.1 µM (N-type calcium channel; [4]) [%]	inhibition at 1 µM (N-type calcium channel; [3]) [%]	inhibition at 1 µM (N-type calcium channel; [4]) [%]	Structure (SMILES)	antihyperalgesic effect [2]
89	7.89	37	21			COc1ccccc1-n1nc2c(c1-c1ccc(Cl)cc1)CC1(C2)OCC(C)(C)CO1 [Compound 71, 3-(4-chlorophenyl)-2-(2-methoxyphenyl)-5′,5′-dimethyl-2,6-dihydro-4H-spiro[cyclopenta[c]pyrazole-5,2′-[1,3]dioxane]]	antihyperalgesic effect
88	7.37			73	68	COc1ccccc1-n1nc2c(c1-c1ccc(C#N)cc1)C[C@H](n1cc(C3CCCC3)nn1)C2 [Compound 124, 4-[(5S)-5-(4-cyclopentyl-1H-1,2,3-triazol-1-yl)-2-(2-methoxyphenyl)-2,4,5,6-tetrahydrocyclopenta[c]pyrazol-3-yl]benzonitrile]	
	7.15			26	15	COc1ccccc1-n1nc2c(c1-c1ccc(Cl)cc1)CC(CCNC(C)=O)C2 (stereo not shown) [Compound 12, N-{2-[3-(4-chlorophenyl)-2-(2-methoxyphenyl)-2,4,5,6-tetrahydrocyclopenta[c]pyrazol-5-yl]ethyl}acetamide]	
95	7.85	41	33			CN(C)S(=O)(=O)N(C)[C@@H]1Cc2nn(-c3cccc4c3OCC4)c(-c3ccc(Cl)cc3)c2C1 [Compound 50, N-[(5S)-3-(4-chlorophenyl)-2-(2,3-dihydro-1-benzofuran-7-yl)-2,4,5,6-tetrahydrocyclopenta[c]pyrazol-5-yl]-N,N′,N′-trimethylsulfamide]	
